Measured values: the supplement of paper PMC10307832

What was measured:
Assay in all cases: relative viability (nuclei count vs DMSO), 5 days (fraction); higher = more cells survive
Cediranib + Alpelisib = compound: COc1cc2c(Oc3ccc4[nH]c(C)cc4c3F)ncnc2cc1OCCCN1CCCC1 [Cediranib] + Cc1nc(NC(=O)N2CCC[C@H]2C(N)=O)sc1-c1ccnc(C(C)(C)C(F)(F)F)c1 [Alpelisib] (partner 2 µM)
Method in brief: (§1)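 A single step with final 0.05% Triton X-100, 1% formaldehyde and 1 ug/ml Hoechst fixed the cells and stained nuclei 5 days after treatment. Lung cancer cell lines in 1536-well plates had been treated by pin tool the day after seeding with one drug alone or a fixed anchor-drug dose plus five library-drug doses (not always all listed) in √10 steps, and nuclei were counted on 4× images. Relative viability is the ratio of nuclei in treated wells to nuclei in vehicle wells, taken as the median of duplicate plates.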

[1] = compound: O=C(C[C@H]1NCCC[C@@H]1O)Cn1cnc2cc(Br)c(Cl)cc2c1=O (racemic) [Halofuginone] + C[C@]1(O)C[C@@H](c2nc(-c3ccc4ccc(-c5ccccc5)nc4c3)c3c(N)nccn32)C1 [Linsitinib] (partner 1 µM)
Method in brief: as §1

Halofuginone + AZD7762 = compound: O=C(C[C@H]1NCCC[C@@H]1O)Cn1cnc2cc(Br)c(Cl)cc2c1=O (racemic) [Halofuginone] + NC(=O)Nc1cc(-c2cccc(F)c2)sc1C(=O)N[C@H]1CCCNC1 [AZD7762] (partner 0.2 µM)
Method in brief: as §1

[2] = compound: O=C(C[C@H]1NCCC[C@@H]1O)Cn1cnc2cc(Br)c(Cl)cc2c1=O (racemic) [Halofuginone] + CCNC(=O)c1noc(-c2cc(C(C)C)c(O)cc2O)c1-c1ccc(CN2CCOCC2)cc1 [Luminespib] (partner 0.01 µM)
Method in brief: as §1

A549
relative viability (Cediranib + Alpelisib; first compound 0.04 µM): 0.698 | relative viability (Cediranib + Alpelisib; first compound 0.1265 µM): 0.947 | relative viability (Cediranib + Alpelisib; first compound 0.4 µM): 0.654 | relative viability (Cediranib + Alpelisib; first compound 1.265 µM): 0.701 | relative viability (Cediranib + Alpelisib; first compound 4 µM): 0.869 | relative viability ([1]; first compound 0.001 µM): 0.653 | relative viability ([1]; first compound 0.003162 µM): 0.556 | relative viability ([1]; first compound 0.01 µM): 0.612 | relative viability ([1]; first compound 0.03162 µM): 0.559 | relative viability ([1]; first compound 0.1 µM): 0.286

Calu-6
relative viability (Cediranib + Alpelisib; first compound 0.04 µM): 1.06 | relative viability (Cediranib + Alpelisib; first compound 0.1265 µM): 1.01 | relative viability (Cediranib + Alpelisib; first compound 0.4 µM): 0.991 | relative viability (Cediranib + Alpelisib; first compound 1.265 µM): 0.935 | relative viability (Cediranib + Alpelisib; first compound 4 µM): 1.04 | relative viability ([1]; first compound 0.001 µM): 1 | relative viability ([1]; first compound 0.01 µM): 0.932 | relative viability ([1]; first compound 0.03162 µM): 0.712 | relative viability ([1]; first compound 0.1 µM): 0.35

NCI-H1648
relative viability (Halofuginone + AZD7762; first compound 0.001 µM): 0.742 | relative viability (Halofuginone + AZD7762; first compound 0.003162 µM): 0.608 | relative viability (Halofuginone + AZD7762; first compound 0.01 µM): 0.631 | relative viability (Halofuginone + AZD7762; first compound 0.03162 µM): 0.854 | relative viability (Halofuginone + AZD7762; first compound 0.1 µM): 0.694

NCI-H2023
relative viability (Cediranib + Alpelisib; first compound 0.04 µM): 0.667 | relative viability (Cediranib + Alpelisib; first compound 0.1265 µM): 0.706 | relative viability (Cediranib + Alpelisib; first compound 0.4 µM): 0.58 | relative viability (Cediranib + Alpelisib; first compound 1.265 µM): 0.559 | relative viability (Cediranib + Alpelisib; first compound 4 µM): 0.667 | relative viability ([2]; first compound 0.001 µM): 0.849 | relative viability ([2]; first compound 0.003162 µM): 0.699 | relative viability ([2]; first compound 0.01 µM): 0.529 | relative viability ([2]; first compound 0.03162 µM): 0.148 | relative viability ([2]; first compound 0.1 µM): 0.0557 | relative viability ([1]; first compound 0.001 µM): 0.76 | relative viability ([1]; first compound 0.003162 µM): 0.535 | relative viability ([1]; first compound 0.01 µM): 0.706 | relative viability ([1]; first compound 0.03162 µM): 0.232 | relative viability ([1]; first compound 0.1 µM): 0.157

NCI-H2342
relative viability ([2]; first compound 0.001 µM): 0.817 | relative viability ([2]; first compound 0.003162 µM): 0.719 | relative viability ([2]; first compound 0.01 µM): 0.699 | relative viability ([2]; first compound 0.03162 µM): 0.731 | relative viability ([2]; first compound 0.1 µM): 0.64 | relative viability (Halofuginone + AZD7762; first compound 0.001 µM): 0.458 | relative viability (Halofuginone + AZD7762; first compound 0.003162 µM): 0.536 | relative viability (Halofuginone + AZD7762; first compound 0.01 µM): 0.507 | relative viability (Halofuginone + AZD7762; first compound 0.03162 µM): 0.487 | relative viability (Halofuginone + AZD7762; first compound 0.1 µM): 0.588

SW 1573
relative viability (Cediranib + Alpelisib; first compound 0.04 µM): 0.586 | relative viability (Cediranib + Alpelisib; first compound 0.1265 µM): 0.834 | relative viability (Cediranib + Alpelisib; first compound 0.4 µM): 0.655 | relative viability (Cediranib + Alpelisib; first compound 1.265 µM): 0.619 | relative viability (Cediranib + Alpelisib; first compound 4 µM): 0.79 | relative viability ([2]; first compound 0.001 µM): 0.507 | relative viability ([2]; first compound 0.003162 µM): 0.152 | relative viability ([2]; first compound 0.01 µM): 0.265 | relative viability ([2]; first compound 0.03162 µM): 0.113 | relative viability ([2]; first compound 0.1 µM): 0.0969 | relative viability ([1]; first compound 0.001 µM): 0.902 | relative viability ([1]; first compound 0.003162 µM): 0.796 | relative viability ([1]; first compound 0.01 µM): 0.704 | relative viability ([1]; first compound 0.03162 µM): 0.683 | relative viability ([1]; first compound 0.1 µM): 0.35

NCI-H661
relative viability (Cediranib + Alpelisib; first compound 0.04 µM): 0.633 | relative viability (Cediranib + Alpelisib; first compound 0.1265 µM): 1.03 | relative viability (Cediranib + Alpelisib; first compound 0.4 µM): 0.631 | relative viability (Cediranib + Alpelisib; first compound 1.265 µM): 0.522 | relative viability (Cediranib + Alpelisib; first compound 4 µM): 0.588 | relative viability ([2]; first compound 0.001 µM): 0.83 | relative viability ([2]; first compound 0.003162 µM): 0.953 | relative viability ([2]; first compound 0.01 µM): 0.88 | relative viability ([2]; first compound 0.03162 µM): 0.696 | relative viability ([2]; first compound 0.1 µM): 0.504 | relative viability ([1]; first compound 0.001 µM): 0.677 | relative viability ([1]; first compound 0.003162 µM): 0.589 | relative viability ([1]; first compound 0.01 µM): 0.537 | relative viability ([1]; first compound 0.03162 µM): 0.627 | relative viability ([1]; first compound 0.1 µM): 0.39
